From paper PMC12010937, “Evaluation of FXR Activity in Pollutants Identified in Sewage Sludge and Subsequent in Vitro and in Vivo Characterization of Metabolic Effects of Triphenyl Phosphate” (Environmental Health Perspectives, 2025)
Read-outs that look alike come from different tables or passages of the source.

Tested on: C57BL/6N mice
Conditions: TPHP-L group, liver
[1] = adduct [M+Na]+, first of two TG 52:3 lines
[2] = adduct [M+Na]+, second of two TG 52:3 lines

O=P(Oc1ccccc1)(Oc1ccccc1)Oc1ccccc1 [TPHP, triphenyl phosphate]
Z-score of CAR 6:0 (adduct [M+H]+): 0.06 | Z-score of CAR 10:0 (adduct [M+H]+): 0.42 | Z-score of CAR 12:0 (adduct [M+H]+): 0.80 | Z-score of CAR 16:2 (adduct [M+H]+): -0.06 | Z-score of CAR 18:2 (adduct [M+H]+): -0.03 | Z-score of CAR 18:4 (adduct [M+H]+): 0.78 | Z-score of CAR 20:4 (adduct [M+H]+): 0.82 | Z-score of NAE 14:0 (adduct [M+H]+): -0.48 | Z-score of NAE 20:5 (adduct [M+H]+): 1.00 | Z-score of PC 40:6 (adduct [M+H]+): -0.17 | Z-score of PS 36:4 (adduct [M+H]+): 0.68 | Z-score of SM 27:5;O2 (adduct [M+H]+): 0.55 | Z-score of SM 28:3;O3 (adduct [M+H]+): 0.44 | Z-score of SM 31:3;O3 (adduct [M+H]+): -0.11 | Z-score of SM 41:2;O2 (adduct [M+H]+): 0.71 | average intensity of CAR 6:0 (adduct [M+H]+): 2396721 | average intensity of CAR 10:0 (adduct [M+H]+): 1504841 | average intensity of CAR 12:0 (adduct [M+H]+): 2823213 | average intensity of CAR 16:2 (adduct [M+H]+): 1645671 | average intensity of CAR 18:2 (adduct [M+H]+): 11661319 | average intensity of CAR 18:4 (adduct [M+H]+): 10920113 | average intensity of CAR 20:4 (adduct [M+H]+): 36994205 | average intensity of NAE 14:0 (adduct [M+H]+): 681808 | average intensity of NAE 20:5 (adduct [M+H]+): 53457329 | average intensity of PC 40:6 (adduct [M+H]+): 25730542 | average intensity of PS 36:4 (adduct [M+H]+): 1577436 | average intensity of SM 27:5;O2 (adduct [M+H]+): 18375860 | average intensity of SM 28:3;O3 (adduct [M+H]+): 1750893 | average intensity of SM 31:3;O3 (adduct [M+H]+): 1688236 | average intensity of SM 41:2;O2 (adduct [M+H]+): 9894007 | Z-score of BMP 25:4 (adduct [M+NH4]+): -0.15 | Z-score of BMP 30:5 (adduct [M+NH4]+): -0.42 | Z-score of BMP 38:4 (adduct [M+NH4]+): -0.33 | Z-score of PG 21:2 (adduct [M+NH4]+): -0.09 | Z-score of PI 39:10 (adduct [M+NH4]+): -0.15 | Z-score of TG 48:11 (adduct [M+NH4]+): -0.30 | Z-score of TG 55:4 (adduct [M+NH4]+): -0.04 | average intensity of BMP 25:4 (adduct [M+NH4]+): 28243710 | average intensity of BMP 30:5 (adduct [M+NH4]+): 997136 | average intensity of BMP 38:4 (adduct [M+NH4]+): 9007436 | average intensity of PG 21:2 (adduct [M+NH4]+): 4648685 | average intensity of PI 39:10 (adduct [M+NH4]+): 2117103 | average intensity of TG 48:11 (adduct [M+NH4]+): 18422444 | average intensity of TG 55:4 (adduct [M+NH4]+): 5767515 | Z-score of Cer 42:1;O2 (adduct [M+Na]+): -0.14 | Z-score of Cer 64:6;O2 (adduct [M+Na]+): 0.49 | Z-score of DG 19:1 (adduct [M+Na]+): -0.58 | Z-score of DG 26:5 (adduct [M+Na]+): -0.57 | Z-score of DG 26:6 (adduct [M+Na]+): -0.39 | Z-score of PC 29:5 (adduct [M+Na]+): -0.26 | Z-score of PC 38:6 (adduct [M+Na]+): -0.37 | Z-score of PC 42:9 (adduct [M+Na]+): -0.33 | Z-score of PS 40:7 (adduct [M+Na]+): 0.24 | Z-score of TG 52:2 (adduct [M+Na]+): 0.37 | Z-score of TG 52:4 (adduct [M+Na]+): 0.20 | average intensity of Cer 42:1;O2 (adduct [M+Na]+): 2208919 | average intensity of Cer 64:6;O2 (adduct [M+Na]+): 16081083 | average intensity of DG 19:1 (adduct [M+Na]+): 5508 | average intensity of DG 26:5 (adduct [M+Na]+): 1202226 | average intensity of DG 26:6 (adduct [M+Na]+): 565410 | average intensity of PC 29:5 (adduct [M+Na]+): 8118187 | average intensity of PC 38:6 (adduct [M+Na]+): 13132954 | average intensity of PC 42:9 (adduct [M+Na]+): 1167997 | average intensity of PS 40:7 (adduct [M+Na]+): 3607887 | average intensity of TG 52:2 (adduct [M+Na]+): 9167552 | average intensity of TG 52:4 (adduct [M+Na]+): 2497450 | Z-score of TG 52:3 [1]: 0.19 | average intensity of TG 52:3 [1]: 1036928 | Z-score of TG 52:3 [2]: 0.18 | average intensity of TG 52:3 [2]: 8512501 | Z-score of Cer 40:1;O2 (adduct [M-H]-): -0.23 | Z-score of Cer 41:1;3O(2OH) (adduct [M-H]-): -0.38 | Z-score of Cer 42:1;3O(2OH) (adduct [M-H]-): -0.39 | Z-score of Cer 43:1;3O(2OH) (adduct [M-H]-): -0.38 | Z-score of FA 10:1 (adduct [M-H]-): -0.53 | Z-score of FA 14:2 (adduct [M-H]-): 0.22 | Z-score of FA 16:2;O (adduct [M-H]-): 0.94 | Z-score of FA 19:2;O2 (adduct [M-H]-): 0.68 | Z-score of PG 34:2 (adduct [M-H]-): -0.56 | Z-score of PG 44:12 (adduct [M-H]-): -0.57 | Z-score of PI 36:3 (adduct [M-H]-): -0.53 | Z-score of PI 38:4 (adduct [M-H]-): 0.83 | average intensity of Cer 40:1;O2 (adduct [M-H]-): 383914 | average intensity of Cer 41:1;3O(2OH) (adduct [M-H]-): 1471085 | average intensity of Cer 42:1;3O(2OH) (adduct [M-H]-): 280519 | average intensity of Cer 43:1;3O(2OH) (adduct [M-H]-): 206714 | average intensity of FA 10:1 (adduct [M-H]-): 231265 | average intensity of FA 14:2 (adduct [M-H]-): 1600712 | average intensity of FA 16:2;O (adduct [M-H]-): 1172357 | average intensity of FA 19:2;O2 (adduct [M-H]-): 7389373 | average intensity of PG 34:2 (adduct [M-H]-): 228532 | average intensity of PG 44:12 (adduct [M-H]-): 36906 | average intensity of PI 36:3 (adduct [M-H]-): 498699 | average intensity of PI 38:4 (adduct [M-H]-): 49874871
